The target in one test is T1, CDK7 (Homo sapiens, UniProt P50613).
T1 construct: purchased Eurofilns (sic; Eurofins) 14-476 M
Briefly: Inhibitory effect on the kinase activity of CDK7 in vitro (Caliper). Particulars: 77 uM ATP, 0.2 ug/uL CTD3 peptide; read-out: CDK 7 IC50. The class given is biochemical. On the procedure:
(§1) The detection of the inhibitory effect of the compounds of the present disclosure on the kinase activity of CDK7/CDK9 in vitro was determined by the following method:
(§2) 1) The compound was accurately weighed and dissolved in DMSO (Sigma, D2650) to a concentration of 100 mM for later use. The compound was diluted to 5-fold of a desired highest concentration, and diluted 4-fold into 6 concentration gradients, allowing the final concentration of the compound in the reaction system to be CDK7: 3000, 750, 188, 47, 12, 3 nM; CDK9: 100, 25, 6.25, 1.56, 0.39, 0.098 nM. 5 ul was taken to a 384-well plate (Corning, 4512).
(§3) 2) Kinase reaction: 10uL protein kinase (CDK7: Eurofilns,14-476 M; CDK9: Millipore,14-685 M) solution was added to the 384-well plate (Corning, 4512) containing the compound, and allowed to stand at room temperature for 10 min; a mixed solution of ATP(Sigma, A7699) and substrate polypeptide (CDK7: 77 uM ATP&0.2ug/uL CTD3 peptide (GL Biochem,SY356885); CDK9: 10 uM ATP&0.2 ug/uL CTD3 peptide (GL Biochem,SY356885)) was added, and allowed to stand at 28° C. for a short time; and then a stop solution was added to terminate the reaction at 25 uL per well.
(§4) 3) Detection: Data was collected by Caliper.
(§5) 4) Calculation: The IC50 value was calculated by Graphpad prism 5.0 software according to the concentration of the compound and the corresponding signal value.

The next test concerns Mv4-11 cells. Briefly: Inhibition of the proliferation of Mv4-11 cells (CCK8). It counts as cell-based. On the procedure:
The inhibition effect of the compounds of the present disclosure on the proliferation of Mv4-11 cells (ATCC:CRL-9591™) in vitro was determined by the following method:
1) Cell inoculation: Mv4-11 cells with good growing state in logarithmic growth phase were inoculated into a 96-well plate at 20000 cells per well and 50 uL, and cultured at 37° C. and under 5% CO2 condition for 2-4 h.
2) Administration: The compound was diluted with 1640 medium containing 10% FBS and 1% PS: 0.4 uL of the compound with an initial concentration of 1 mM was placed in a dilution plate, each added with 199.6 uL of the above culture medium, and gradiently diluted 4-fold, so that the final concentration in the added cell was 1000, 250, 62.5, 15.625, 3.91, 0.98, 0.24, 0.06 nM. 50 µL of the medium containing the compound was sequentially added, and it was placed in a 37° C., 5% CO2 cell incubator for 48 hours.
3) Detection: 10uL CCK8 (Dojindo, CK 04) solution was added to each well, incubated in 37° C. 5% CO2 cell incubator for 2 hours, and then the OD450 value was read by Synegry H1(BioTek) multimode microplate reader.
4) Calculation: The IC50 value was calculated using Graphpad prism 5.0 software according to the concentration of the compound and the corresponding signal value.

In a further test the target is T2, CDK9 (Homo sapiens, UniProt P50750).
T2 construct: purchased Millipore 14-685 M
T2 sequence (P50750 whole entry): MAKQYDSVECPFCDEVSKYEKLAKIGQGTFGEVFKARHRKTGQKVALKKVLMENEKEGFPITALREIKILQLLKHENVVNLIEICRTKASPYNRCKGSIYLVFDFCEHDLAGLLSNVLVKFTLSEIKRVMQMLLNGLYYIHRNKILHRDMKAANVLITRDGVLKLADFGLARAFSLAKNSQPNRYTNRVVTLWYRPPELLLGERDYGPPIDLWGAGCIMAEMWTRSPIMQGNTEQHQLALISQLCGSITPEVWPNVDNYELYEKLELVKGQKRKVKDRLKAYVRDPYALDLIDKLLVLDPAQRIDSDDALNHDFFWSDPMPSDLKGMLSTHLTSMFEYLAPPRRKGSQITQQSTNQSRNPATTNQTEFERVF
T2 sequence (O60563 whole entry partner): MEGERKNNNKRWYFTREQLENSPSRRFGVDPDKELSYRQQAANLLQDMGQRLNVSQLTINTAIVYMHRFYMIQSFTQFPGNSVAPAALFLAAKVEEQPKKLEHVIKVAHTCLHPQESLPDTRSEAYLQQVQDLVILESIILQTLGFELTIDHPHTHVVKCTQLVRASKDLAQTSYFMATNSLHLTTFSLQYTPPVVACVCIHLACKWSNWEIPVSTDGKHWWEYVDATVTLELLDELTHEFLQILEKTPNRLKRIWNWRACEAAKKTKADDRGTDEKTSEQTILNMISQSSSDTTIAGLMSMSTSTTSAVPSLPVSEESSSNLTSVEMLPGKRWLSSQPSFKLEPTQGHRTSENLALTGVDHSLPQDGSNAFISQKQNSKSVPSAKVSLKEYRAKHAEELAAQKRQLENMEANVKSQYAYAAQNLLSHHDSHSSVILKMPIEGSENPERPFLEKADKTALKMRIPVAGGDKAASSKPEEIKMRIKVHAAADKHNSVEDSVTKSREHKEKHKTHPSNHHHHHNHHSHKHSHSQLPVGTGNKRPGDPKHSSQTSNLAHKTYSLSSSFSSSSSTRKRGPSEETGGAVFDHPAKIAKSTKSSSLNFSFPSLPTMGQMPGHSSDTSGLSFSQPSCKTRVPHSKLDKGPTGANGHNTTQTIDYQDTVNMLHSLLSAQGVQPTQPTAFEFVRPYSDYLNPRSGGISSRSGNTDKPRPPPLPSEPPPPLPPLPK
The experiment in a line: Inhibitory effect on the kinase activity of CDK9 in vitro (Caliper). The class given is biochemical. Particulars: 10 uM ATP, 0.2 ug/uL CTD3 peptide; read-out: CDK 9 IC50. On the procedure:
as §1, §2, §3, §4, §5

SMILES strings stand for the structures.

Usually IC50 stands for the concentration needed to halve the response being measured.

T1 sequence (P50613 whole entry): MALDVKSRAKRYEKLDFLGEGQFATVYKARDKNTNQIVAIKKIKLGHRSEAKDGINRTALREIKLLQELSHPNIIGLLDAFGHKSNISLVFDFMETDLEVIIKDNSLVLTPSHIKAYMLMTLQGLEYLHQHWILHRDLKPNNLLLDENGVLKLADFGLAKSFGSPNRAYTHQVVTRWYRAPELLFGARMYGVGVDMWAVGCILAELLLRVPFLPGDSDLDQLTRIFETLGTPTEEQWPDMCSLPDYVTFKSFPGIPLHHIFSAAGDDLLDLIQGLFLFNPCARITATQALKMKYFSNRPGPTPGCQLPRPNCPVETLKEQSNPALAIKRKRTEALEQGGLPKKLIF
T1 sequence (P51946 whole entry partner): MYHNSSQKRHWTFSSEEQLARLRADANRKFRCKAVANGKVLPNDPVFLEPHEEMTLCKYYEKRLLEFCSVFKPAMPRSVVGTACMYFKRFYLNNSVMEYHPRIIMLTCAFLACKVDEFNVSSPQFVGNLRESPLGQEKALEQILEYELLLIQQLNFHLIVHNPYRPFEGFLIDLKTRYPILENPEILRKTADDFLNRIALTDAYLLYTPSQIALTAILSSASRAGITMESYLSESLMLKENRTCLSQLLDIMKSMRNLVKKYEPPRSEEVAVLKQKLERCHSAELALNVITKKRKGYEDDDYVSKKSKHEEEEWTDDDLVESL
T1 sequence (P51948 whole entry partner): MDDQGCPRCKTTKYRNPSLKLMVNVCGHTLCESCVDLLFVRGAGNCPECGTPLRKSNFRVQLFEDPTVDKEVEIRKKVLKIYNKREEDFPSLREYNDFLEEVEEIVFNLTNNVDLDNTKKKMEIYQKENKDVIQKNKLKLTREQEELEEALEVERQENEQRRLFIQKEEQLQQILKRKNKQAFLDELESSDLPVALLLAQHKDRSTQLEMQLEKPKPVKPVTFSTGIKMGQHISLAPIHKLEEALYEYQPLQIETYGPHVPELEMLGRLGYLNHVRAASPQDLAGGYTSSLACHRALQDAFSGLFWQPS

`CC(=O)N[C@@H]1CCC[C@H](C(=O)Nc2cc(-c3cnn4c3CC(C)(C)C4)c(Cl)cn2)C1` [AZD4573, reference compound]: the 50% inhibitory concentration (IC50) on CDK7 stood at 109 nM; in the test on Mv4-11 cells (Homo sapiens, MV4-11, 48 h), 4.2 nM. With `CC1(C)Cc2c(-c3cc(NC(=O)Cc4cccc(C(N)=O)c4)ncc3Cl)cnn2C1` [Compound 1, 3-(2-((5-chloro-4-(5,5-dimethyl-5,6-dihydro-4H-pyrrolo[1,2-b]pyrazol-3-yl)pyridin-2-yl)amino)-2-oxoethyl)benzamide], the half-inhibitory concentration (IC50) amounted to 3 nM at CDK9; 96 nM at CDK7; 7.4 nM in the test with Mv4-11 cells (Homo sapiens, MV4-11, 48 h). On to `C[C@H](C(=O)Nc1cc(-c2cnn3c2CC(C)(C)C3)c(Cl)cn1)c1cccc(C(N)=O)c1` [Compound 2-1, (S)-3-(1-((5-chloro-4-(5,5-dimethyl-5,6-di hydro-4H-pyrrolo[1,2-b]pyrazol-3-yl)pyridin-2-yl)amino)-1-oxopropan-2-yl)benzamide (assumed)], for which, in the test on Mv4-11 cells (Homo sapiens, MV4-11, 48 h), the 50% inhibitory concentration (IC50) was more than 1000 nM. Still for that read-out and setting: in the case of `CC1(C)Cc2c(-c3cc(NC(=O)Cc4cccc(C#N)c4)ncc3Cl)cnn2C1` [Compound 4, N-(5-chloro-4-(5,5-dimethyl-5,6-dihydro-4 H-pyrrolo[1,2-b]pyrazol-3-yl)pyridin-2-yl) -2-(3-cyanophenyl)acetamide] it was 10.7 nM; in that of `CC1(C)Cc2c(-c3cc(NC(=O)Cc4ccncc4)ncc3Cl)cnn2C1` [Compound 5, N-(5-chloro-4-(5,5-dimethyl-5,6-dihydro-4 H-pyrrolo[1,2-b]pyrazol-3-yl)pyridin-2-yl) -2-(pyridin-4-yl)acetamide], 26 nM. `CC1(C)Cc2c(-c3cc(NC(=O)Cc4cccnc4)ncc3Cl)cnn2C1` [Compound 6, N-(5-chloro-4-(5,5-dimethyl-5,6-dihydro-4 H-pyrrolo[1,2-b]pyrazol-3-yl)pyridin-2-yl) -2-(pyridin-3-yl)acetamide]: the IC50 at CDK9 was 3.1 nM; on CDK7, 197 nM; in the test with Mv4-11 cells (Homo sapiens, MV4-11, 48 h), 9.9 nM. On the same counts, the results for `CC1(C)Cc2c(-c3cc(NC(=O)Cc4cccc(C#N)n4)ncc3Cl)cnn2C1` [Compound 7, N-(5-chloro-4-(5,5-dimethyl-5,6-dihydro-4 H-pyrrolo[1,2-b]pyrazol-3-yl)pyridin-2-yl) -2-(6-cyanopyridin-2-yl)acetamide] are 1.7 nM, 118 nM and 8.2 nM. On the same counts, the results for `CC(=O)Nc1cccc(CC(=O)Nc2cc(-c3cnn4c3CC(C)(C)C4)c(Cl)cn2)c1` [Compound 8, 2-(3-acetylaminophenyl)-N-(5-chloro-4-(5,5-dimethyl-5,6-dihydro-4H-pyrrolo[1,2-b]pyrazol-3-yl)pyridin-2-yl)acetamide] are 3.4 nM, 116 nM and 19.6 nM. As for `CC1(C)Cc2c(-c3cc(NC(=O)Cc4cccc(NC(=O)CC#N)c4)ncc3Cl)cnn2C1` [Compound 9, N-(5-chloro-4-(5,5-dimethyl-5,6-dihydro-4 H-pyrrolo[1,2-b]pyrazol-3-yl)pyridin-2-yl) -2-(3-(2-cyanoacetylamino)phenyl)acetamide], the half-maximal inhibitory concentration (IC50) with Mv4-11 cells (Homo sapiens, MV4-11, 48 h) is 13 nM.

The compound `C[C@H](C(=O)Nc1cc(-c2cnn3c2CC(C)(C)C3)c(Cl)cn1)c1cccnc1` [Compound 11-1, (S)-N-(5-chloro-4-(5,5-dimethyl-5,6-dihydro-4H-pyrrolo[1,2-b]pyrazol-3-yl)pyridin-2-yl)-2-(pyridin-3-yl)propionamide (assumed)] gave a 50% inhibitory concentration (IC50) in the test with Mv4-11 cells (Homo sapiens, MV4-11, 48 h) of 893 nM. `COc1ccc(CC(=O)Nc2cc(-c3cnn4c3CC(C)(C)C4)c(Cl)cn2)cn1` [Compound 12, N-(5-chloro-4-(5,5-dimethyl-5,6-dihydro-4 H-pyrrolo[1,2-b]pyrazol-3-yl)pyridin-2-yl) -2-(6-methoxypyridin-3-yl)acetamide]: the IC50 at CDK9 was 5.2 nM; with Mv4-11 cells (Homo sapiens, MV4-11, 48 h), 12.2 nM.

For `CC(=O)Nc1cccc([C@H](C)C(=O)Nc2cc(-c3cnn4c3CC(C)(C)C4)c(Cl)cn2)c1` [Compound 14-1, (S)-2-(3-acetylacetylaminophenyl)-N-(5-chloro-4-(5,5-dimethyl-5,6-dihydro-4H-pyrrolo [1,2-b]pyrazol-3-yl)pyridin-2-yl)propionamide (assumed)], the half-maximal inhibitory concentration (IC50) at CDK9 amounted to 2.3 nM; in the test with Mv4-11 cells (Homo sapiens, MV4-11, 48 h), 10.1 nM. As for `CC(=O)Nc1cccc([C@@H](C)C(=O)Nc2cc(-c3cnn4c3CC(C)(C)C4)c(Cl)cn2)c1` [Compound 14-2, (R)-2-(3-acetylaminophenyl)-N-(5-chloro-4-(5,5-dimethyl-5,6-dihydro-4H-pyrrolo[1,2-b]pyrazol-3-yl)pyridin-2-yl)propionamide (assumed)], the IC50 in the test on Mv4-11 cells (Homo sapiens, MV4-11, 48 h) came out at 136 nM. In the case of `C[C@H](C(=O)Nc1cc(-c2cnn3c2CC(C)(C)C3)c(Cl)cn1)c1ccnc(C#N)c1` [Compound 15-1, (S)-N-(5-chloro-4-(5,5-dimethyl-5,6-dihydro-4H-pyrrolo[1,2-b]pyrazol-3-yl)pyridin-2-yl)-2-(2-cyanopyridin-4-yl)propionamide (assumed)], the half-inhibitory concentration (IC50) was found to be 5.9 nM at CDK9 and 11.2 nM in the test with Mv4-11 cells (Homo sapiens, MV4-11, 48 h).

For the compound `C[C@@H](C(=O)Nc1cc(-c2cnn3c2CC(C)(C)C3)c(Cl)cn1)c1ccnc(C#N)c1` [Compound 15-2, (R)-N-(5-chloro-4-(5,5-dimethyl-5,6-dihydro-4H-pyrrolo[1,2-b]pyrazol-3-yl)pyridin-2-yl)-2-(2-cyanopyridin-4-yl)propionamide (assumed)], in the test with Mv4-11 cells (Homo sapiens, MV4-11, 48 h), 161 nM corresponded to half-maximal inhibition (IC50). For `COc1cc([C@H](C)C(=O)Nc2cc(-c3cnn4c3CC(C)(C)C4)c(Cl)cn2)ccn1` [Compound 16-1, (S)-N-(5-chloro-4-(5,5-dimethyl-5,6-dihydro-4H-pyrrolo[1,2-b]pyrazol-3-yl)pyridin-2-yl)-2-(2-methoxypyridin-4-yl)propionamide (assumed)], the 50% inhibitory concentration (IC50) is 3.4 nM on CDK9 and 6.4 nM with Mv4-11 cells (Homo sapiens, MV4-11, 48 h). Turning to `COc1cc([C@@H](C)C(=O)Nc2cc(-c3cnn4c3CC(C)(C)C4)c(Cl)cn2)ccn1` [Compound 16-2, (R)-N-(5-chloro-4-(5,5-dimethyl-5,6-dihydro-4H-pyrrolo[1,2-b]pyrazol-3-yl)pyridin-2-yl)-2-(2-methoxypyridin-4-yl)propionamide (assumed)], the IC50 in the test with Mv4-11 cells (Homo sapiens, MV4-11, 48 h) stood at 469 nM. With `C[C@@H](C(=O)Nc1cc(-c2cnn3c2CC(C)(C)C3)c(Cl)cn1)c1ccnc(C(C)(C)O)c1` [Compound 18-2, (R)-N-(5-chloro-4-(5,5-dimethyl-5,6-dihydro-4H-pyrrolo[1,2-b]pyrazol-3-yl)pyridin-2-yl)-2-(2-(2-hydroxypropan-2-yl)pyridin-4-yl)propionamide (assumed)], the IC50 was 3 nM at CDK9; 74 nM on CDK7; 25 nM with Mv4-11 cells (Homo sapiens, MV4-11, 48 h). Compound `C[C@H](C(=O)Nc1cc(-c2cnn3c2CC(C)(C)C3)c(Cl)cn1)c1ccc(-c2cccnc2)nc1` [Compound 19-1, (S)-2-([2,3′-bipyridin]-5-yl)-N-(5-chloro-4-(5,5-dimethyl-5,6-dihydro-4H-pyrrolo[1,2-b]pyrazol-3-yl)pyridin-2-yl)propionamide (assumed)] registered an IC50 with Mv4-11 cells (48 hours) of 13.9 nM. Consider `C=CC(=O)NCc1ccc(-c2ccc([C@H](C)C(=O)Nc3cc(-c4cnn5c4CC(C)(C)C5)c(Cl)cn3)cn2)cn1` [Compound 20-1, (S)-N-((5-(1-((5-chloro-4-(5,5-dimethyl-5,6-dihydro-4H-pyrrolo[1,2-b]pyrazol-3-yl)pyridin-2-yl)amino)-1-oxopropan-2-yl)-[2,3′ -bipyridin]-6′-yl)methyl)acrylamide (assumed)], for which the IC50 on CDK9 was 8.4 nM; at CDK7 it was 25.1 nM; in the test on Mv4-11 cells (Homo sapiens, MV4-11, 48 h), 3.7 nM. Consider `C=CC(=O)NCc1ccc(-c2ccc([C@@H](C)C(=O)Nc3cc(-c4cnn5c4CC(C)(C)C5)c(Cl)cn3)cn2)cn1` [Compound 20-2, (R)-N-((5-(1-((5-chloro-4-(5,5-dimethyl-5,6-dihydro-4H-pyrrolo[1,2-b]pyrazol-3-yl)pyridin-2-yl)amino)-1-oxopropan-2-yl)-[2,3′ -bipyridin]-6′-yl)methyl)acrylamide (assumed)], for which the IC50 in the test with Mv4-11 cells (Homo sapiens, MV4-11, 48 h) came out at 850 nM.

(Values after patent US20230219961A1, “Pyridine acetamide derivative serving as CDK inhibitor, and preparation method therefor and use thereof” (Suzhou AlphaMa Biotechnology Co., Ltd., priority 2020, published 2023).)
